In series [1] the test system is bacterial PLA2. The experiment in a line: Determination of PLA2 activity in bacterial lysates (Bhat et al. 1993). It is filed as biochemical. The procedure: FIG. 1 For determination of phospholipase A2 activity according to Bhat et al. (1993), 10 μl of aliquots of certain isolated bacterial strains prepared from fresh stool samples were incubated with arachidonoyl-thio phosphatidylcholine for 1 hour at 25° C. in a Ca^2+ free buffer as described herein. The reaction was terminated by 5,5-dithio-bis-2-nitrobenzoic acid. A405 was measured and specific PLA2 activity expressed as μmol LPC·mg^−1 protein·h^−1
Suspensions of the respective bacterial strain in 0.9% NaCl were prepared in Sarstedt tubes and adjusted to 1.0 (3×10^8CFU/ml) with opacimeter (Densimat® or Densicheck®). Subsequently, a BHI (brain heart infusion, purchased from Merck) was inoculated with 500 μl of the suspension and incubated at 37° C. aerob or in an airtight jar with BD Gas Pak™ for 16 hours overnight on a shaker. […]
PLA2 activity was determined as described by Bhat, et al. (1993).
For substrate preparation, 125 μg substrate arachidonyl PC (AAPC) was pipetted into Eppendorf reaction tubes (therefore, the volume to pipet from AAPC stocks in ethanol as supplied by Cayman Chemicals was calculated). […]
Finally, the absorption was read at 405 nm and 595 nm.
A unit of PLA2 is defined as a nmol of product formed by 1 ml sample in 1 h incubation. PLA2 activity was determined using the following formula: PLA2 activity(unit)=(OD405 nm−OD595 nm)×78.62×50

The subject of series [2] is host mucosal epithelial cells. In words: Absorption from the intestinal lumen. The following applies: intestinal lumen of the host.
For series [3], the system named is phospholipase C (PLC).
In series [4] the test system is hepatic PLA2. Conditions: Stremmel & Staffer, 2012, et al.; cited from earlier work.

Turning to “ursodeoxycholyl lysophosphatidylethanolamide [UDCA-LPE]”, in series [1], the “inhibition of bacterial PLA2” value was “potent inhibitors”. The “absorption by host mucosal epithelial cells” value in series [2] is reported as “do not enter/are not absorbed by the host mucosal epithelial cells in a considerable amount”. The “inhibition of bacterial phospholipase C (PLC)” value in series [3] is listed as “shown to be inhibited”. Moreover, the “inhibition of hepatic PLA2” value in series [4] is “interferes with hepatic PLA2”.
